US12600926B2, “Treatment compositions with modified amino acid dimers for delivering a benefit agent” (The Procter & Gamble Company, priority 2022, dated 2026)

Assay: Stability of the independent neat fluid by 1H NMR
Assay type: physicochemical
Settings: neat premix fluid, storage
Description: Synthetic Example 1′ was prepared as described in General Method A, but using 10 g of L-Cystine, 17.0 g of dodecanol, and 17.4 g PTSA·H2O. The isolated fluid of Synthetic Example 1′ was then mixed with cyclamen aldehyde as described in General Method B yielding Synthetic Example 1.
Synthetic Example 2′ was prepared as described in General Method A, but using 5.0 g of 2,6-Diaminoheptanedioic acid, 10.5 g of dodecanol, and 11 g PTSA·H2O. The isolated fluid of Synthetic Example 2′ was then mixed with 15 wt % ethanol, and cyclamen aldehyde as described in General Method B yielding Synthetic Example 2A.
Synthetic Example 2′ was prepared as described in General Method A, but using 5.0 g of 2,6-Diaminoheptanedioic acid, 10.8 g of dodecanol, and 11.1 g PTSA H2O. The isolated fluid of Synthetic Example 2′ was then mixed with 15 wt % ethanol, and δ-Damascone, as described in General Method B yielding Synthetic Example 2B.

SMILES: CCCCCCCCCCCCOC(=O)C(CCCC(N=CC(C)Cc1ccc(C(C)C)cc1)C(=O)OCCCCCCCCCCCC)N=CC(C)Cc1ccc(C(C)C)cc1 (centres unmarked) [Synthetic Example 2A]
- Stability of the independent fluid by 1H NMR: stable for several months

SMILES: CCCCCCCCCCCCOC(=O)C(CCCC(NC(C)CC(=O)C1C(C)C=CCC1(C)C)C(=O)OCCCCCCCCCCCC)NC(C)CC(=O)C1C(C)C=CCC1(C)C (centres unmarked) [Synthetic Example 2B]
- Stability of the independent fluid by 1H NMR: stable for several months
